Experimental data reported in patent US20190353647A1, “NOVEL REAL-TIME MULTIPLEXED, MULTI-COLOR BIOLUMINESCENCE RESONANCE ENERGY TRANSFER ASSAY, APPARATUS, AND USES THEREOF” (Universite de Bordeaux, priority 2016, published 2019).

Target: T1, TRPV1 (Homo sapiens, UniProt Q8NER1)
T1 construct: expressed in transfected cells; host or cells: HEK293T
Experiment: Intermolecular BRET assay, TRPV1-Luc/YFP-CaM in HEK293T cells
Assay type: cell-based
Settings: for Effect on CAPS-induced BRET increase: intermolecular test
Text: In order to generate the BRET constructs, super Yellow Fluorescent Protein 2 and Renilla Luciferase II were used to improve the brightness of the assay. They were referred as YFP and Luc for short in the rest of the manuscript. The cDNA of Luc and YFP were first cloned together using a three-piece ligation in the BamHI/XhoI site of pcDNA3.1(+) (Invitrogen, Carlsbad, Calif., USA), yielding two expression vectors pcDNA3.1 YFP-Luc where YFP was cloned in-fusion at the N-terminal of Luc, and pcDNA3.1 Luc-YFP where Luc was cloned in-fusion at the N-terminal of YFP. Both YFP and Luc were amplified by PCR from the pcDNA3-YFP-EPAC-Luc vector. Luc was cloned either at the N-terminal of YFP as a HindIII-EcoRI fragment (primers used: “Luc_HindIII_ATGN-term sense” and “Luc_no Stop_EcoRI_N-term antisense”) or at the COOH-terminal of YFP as an EcoRI-XhoI fragment (primer used: “Luc_EcoRI_ATG_C-term sense” and “Luc_XhoI_Stop_C-term antisense”). In parallel, YFP was cloned either at the N-terminal of Luc as a HindIII-EcoRI fragment (primers used: “YFP_HindIII_ATG_N-term sense” and “YFP_no Stop_EcoRI_N-term antisense”) or at the COOH-terminal of Luc as a EcoRI-XhoI fragment (primer used: “YFP_EcoRI_ATG_C-term sense” and “YFP_XhoI_Stop_C-term antisense”). The sequence joining Luc and YFP sequence encoded […] (SEQ ID NO: 18) as a linker, and contained an AgeI restriction site. The YFP-hTRPV1-Luc expression vector was obtained by subcloning the human TRPV1 cDNA from the pDONR201-hTRPV1 vector (Harvard Medical School PlasmID Repository, clone HsCD00081472) as an EcoRI PCR fragment in the EcoRI site of the vector pcDNA3.1 YFP-Luc (primer used: “hTRPV1_EcoRI_Fus_Sense” and “hTRPV1_EcoRI_Fus_antisense”). The hTRPV1-Luc expression vector was obtained by subcloning the cDNA of hTRPV1 as a HindIII-EcoRI fragment in place of the YFP in the HindIII-EcoRI site of the pcDNA3.1 YFP-Luc vector (primer used: “hTRPV1_HindIII_ATG_Sense” and “hTRPV1_EcoRI_Fus_antisense”). The Luc-hTRPV3 expression vector was obtained by subcloning the cDNA of hTRPV3 (Harvard Medical School PlasmID Repository, clone HsCD00341603) as a AgeI-XhoI fragment in place of the YFP in the AgeI-XhoI sites of the pcDNA3.1 Luc-YFP vector (primer used: “hTRPV3_AgeI_ATG_Sense” and “hTRPV3_Stop_XhoI_antisense”). The hTRPV4-Luc expression vector was obtained by subcloning the cDNA of hTRPV4 as a BamHI-AgeI fragment in place of the YFP in the BamHI-AgeI site of the pcDNA3.1 YFP-Luc vector (primer used: “hTRPV4_BamHI_ATG_Sense” and hTRPV4_AgeI_Fus_antisense”). In each case, the sequence joining the cDNA of interest and either Luc or YFP sequence encoded […] (SEQ ID NO: 18) as a linker.
The cDNA of mAmetrine (Plasmid #54660) and LssmOrange (Plasmid #37130) were obtained from AddGene plasmid repository. The cDNA of aquamarine, mAmetrine and LssmOrange were all subcloned as a HindIII-EcoRI fragment in place of the YFP in the HindIII-EcoRI site of the pcDNA3.1 YFP-Luc vector (primer used: “YFP_HindIII_ATG_N-term sense” and “YFP_no Stop_EcoRI_N-term antisense”) to yield pcDNA3.1 FP-Luc expression vectors (“FP” being any fluorescent protein between aquamarine, mAmetrine and LssmOrange). […] A similar strategy was used to obtain the FP-CaM expression vector using the pcDNA3.1 FP-Luc expression vector instead of the pcDNA3.1 YFP-Luc.
HEK293T cells were maintained in Dulbecco's modified Eagle's medium-high Glucose (DMEM) (D6429, Sigma) supplemented with 10% fetal bovine serum, 100 units mL-1 penicillin and streptomycin. Twenty-four hours before transfection, cells were seeded at a density of 500,000 cells in 6-well dishes. Transient transfections were performed using polyethylenimine (PEI, linear, Mr 25,000; catalogue number 23966 Polysciences, Inc., Warrington, Pa., USA) with a PEI:DNA ratio of 4:1. Usually, 0.1-0.25 μg of the donor constructions and 1.75-1.9 μg of the acceptors constructions were transfected for the BRET measurement.

[1] = TRPV1-Luc/YFP-CaM titration, presence vs absence of CAPS
[2] = temperature rise from 25 to 42° C., TRPV1-Luc/YFP-CaM

T1 sequence (Q8NER1 whole entry): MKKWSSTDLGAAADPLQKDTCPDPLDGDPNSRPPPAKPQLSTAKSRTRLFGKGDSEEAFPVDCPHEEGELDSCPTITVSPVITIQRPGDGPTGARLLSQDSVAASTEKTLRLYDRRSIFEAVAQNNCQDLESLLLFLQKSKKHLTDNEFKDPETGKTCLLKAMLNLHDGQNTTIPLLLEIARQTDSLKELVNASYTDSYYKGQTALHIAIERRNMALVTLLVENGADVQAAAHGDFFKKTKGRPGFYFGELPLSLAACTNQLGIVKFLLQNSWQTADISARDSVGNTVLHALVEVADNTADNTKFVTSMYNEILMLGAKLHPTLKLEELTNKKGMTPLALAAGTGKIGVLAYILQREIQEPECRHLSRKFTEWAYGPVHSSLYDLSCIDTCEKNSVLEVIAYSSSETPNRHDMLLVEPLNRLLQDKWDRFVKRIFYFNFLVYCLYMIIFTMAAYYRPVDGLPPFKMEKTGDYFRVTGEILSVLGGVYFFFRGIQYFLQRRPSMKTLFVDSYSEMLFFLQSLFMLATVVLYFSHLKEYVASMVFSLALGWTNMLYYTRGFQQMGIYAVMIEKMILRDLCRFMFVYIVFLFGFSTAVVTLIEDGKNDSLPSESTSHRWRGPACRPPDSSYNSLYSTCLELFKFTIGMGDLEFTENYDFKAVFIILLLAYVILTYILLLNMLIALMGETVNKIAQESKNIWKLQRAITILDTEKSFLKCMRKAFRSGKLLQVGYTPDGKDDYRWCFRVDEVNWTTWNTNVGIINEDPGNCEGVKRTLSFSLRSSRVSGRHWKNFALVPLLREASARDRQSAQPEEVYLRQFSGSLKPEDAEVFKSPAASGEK

SMILES | Effect on CAPS-induced BRET increase (TRPV1-Luc/YFP-CaM) | Sensitivity of TRPV1-Luc/YFP-CaM interaction (HEK293T, dose-response, FIG. 1) | Change of basal BRET signal (TRPV1-Luc/YFP-CaM) | BRET50 (concentration of YFP-CaM needed to reach 50% of maximal BRET signal) [1] | Maximal BRET signal in BRET titration curves [1] | Change in CAPS potency on temperature rise [2] | Change in maximal efficacy on temperature rise [2] | BRET signal on heating from 25 to 50° C. after preincubation (TRPV1-Luc/YFP-CaM, cells preincubated with the compound)
CC(=O)Nc1nc2c(Oc3cc(-c4ccc(C(F)(F)F)cc4)ncn3)cccc2s1 [AMG517] | inhibited | – | – | – | – | – | – | –
COc1cc(CNC(=O)CCCC/C=C/C(C)C)ccc1O [CAPS, Capsaicin] | – | sensitive | increased with a first order kinetic | diminished | dramatically increased | leftward shift | increase | –
Oc1cc2c(cc1O)CN(C(=S)NCCc1ccc(Cl)cc1)CCC2 [CPZ, Capsazepine] | inhibited | – | – | – | – | – | – | no significant increase
